Measured values: patent US10695347B2, “Pyrimidine derivative and use thereof” (Hubei Bio-Pharmaceutical Industrial Technological Institute …, priority 2015, dated 2020)
Read-outs that look alike come from different tables or passages of the source.

What was measured:
ALK L1196M = ALK L1196M (Homo sapiens (Human), UniProt Q9UM73, L1196M); assay: Inhibition of ALK L1196M kinase activity (Caliper mobility shift); format: biochemical
Experimental: (§1) Inhibition of Compound I Against ALK Kinase Activity
(§2) • I. Preparation of 1× kinase buffer and stop buffer
(§3) 1) 1× Kinase Buffer • 50 mM HEPES. pH 7.5 • 0.0015% Brij-35 • 10 mM MgCl2 • 2 mM DTT • 2) stop buffer • 100 mM HEPES, pH 7.5 • 0.015% Brij-35 • 0.2% Coating Reagent #3 • 50 mM EDTA
(§4) 2. Prepare a Compound Solution to be Tested • Step 2.1 Dilute the compound to 50× of the final desired highest inhibitor concentration in reaction by 100% DMSO. Transfer 100 μl of this compound dilution to a well in a 96-well plate. For example, if desired highest inhibitor concentration is 1 μM, then prepare 50 μM of compound DMSO solution in this step.
(§5) Step 2.2 Further dilute said compound dilution by 3-fold in series, thus obtain 10 concentrations.
(§6) Step 2.3 Add 100 μl of 100% DMSO to two empty wells for no compound control and no enzyme control in the same 96-well plate. Mark the plate as source plate.
(§7) Step 2.4 Prepare an intermediate plate
(§8) Transfer 10 μl of each compound from the source plate to a new 96-well plate as the intermediate plate.
(§9) Add 90 μl of 1× kinase buffer to each well of the intermediate plate. Mix the compounds in the intermediate plate for 10 min on a shaker.
(§10) Transfer 5 μl of each well from the 96-well intermediate plate to a 384-well plate in duplicate. For example, A1 of the 96-well plate is transferred to A1 and A2 of the 384-well plate. A2 of the 96-well plate is transferred to A3 and A4 of the 384-well plate, and so on.
(§11) 4.1 Prepare a 2.5× kinase solution
(§12) Add kinase in 1× kinase base buffer, thus obtain the 2.5× kinase solution.
(§13) 4.2 Prepare a 2.5× peptide solution
(§14) 4.3 In each well of the assay plate obtained in step 3, there was 5 μL of the compound in 10% DMSO.
(§15) 4.4 Transfer the 2.5× enzyme solution to the assay plate.
(§16) 4.5 Incubate at room temperature for 10 min.
(§17) 4.6 Transfer the 2.5× peptide solution to the assay plate.
(§18) 4.7 Kinase reaction and stop
(§19) Incubate at 28° C. for 20 min.
(§20) Add 25 μl of stop buffer to stop reaction.
(§21) Conversion rate of the kinase was read via the Caliper.
(§22) 6.1 Copy conversion data from Caliper program.
(§23) 6.2 Convert conversion values to inhibition values with the following formula: Percent inhibition=(max−conversion)/(max−min)*100
(§24) where “max” stands for DMSO control; and “min” stands for low control.
(§25) 6.3 Fit the data in XLfit excel add-in version 4.3.1 and obtain IC50 values according to the following formula: Y=Bottom+(Top−Bottom)/[…].

Ba/F3 EML4-ALK cells = assay: Suppression of Ba/F3 EML4-ALK cell proliferation (CellTiter-Glo); format: cell-based; details: 3 days incubation
From the text: Cell media: RPMI-1640 medium, fetal calf serum (FCS), antibiotics (Penicillin-Streptomycin), IL-3, puromycin
Cell line: Ba/F3 EML4-ALK
Assay reagent: Cell Viability Assay Kit Celliter-Glo
(§26) Others: a 96-well plate, a 384-well plate, DMSO
(§27) As the amount of ATP can indicate the number of living cells directly, the living cells in medium are able to be quantified by determining the ATP level. In our experiment, we use a cell viability assay kit to quantify the living cells, which utilizes UltraGlow luciferase to generate a stable glow signal in the presence of ATP which is produced by metabolism of living cells, such as respiration. Specifically, a reagent CellTiter-Glo™ was added into cell culture media, and then the luminescent intensity was determined to measure proliferation of cells, as the luminescent intensity is in direct proportion to the ATP level which correlates positively to the number of living cells. The test plate was assayed by the Envision (PE).
(§28) Step 3.1 Culturing test cells
Ba/F3 EML4-ALK cells were planted into a 384-well plate, with almost 300 cells per well. The plate was placed in a carbon dioxide incubator overnight.
(§29) Step 3.2 Preparation of the compounds to be tested
10 concentrations of the working solutions were obtained in duplicate by dilution in 3-fold series with BRAVO.
Step 3.3 Mixing the compound to be tested with the test cells
The compounds to be tested at individual working concentrations were transferred into corresponding wells in the 384-well plate in the step 3.1, with 5 μM as the initial working concentration, and then the 384-well plate was incubated in the carbon dioxide incubator for 3 days.
To each well of the 384-well plate was added the reagent Promega CellTiter-Glo, and incubated at room temperature for 10 minutes to stabilize the luminescence signal. The results were read by the PerkinElmer Envision Multi-mode Plate Reader.

ALK = ALK (Homo sapiens (Human), UniProt Q9UM73); assay: Inhibition of ALK kinase activity (Caliper mobility shift); format: biochemical
Experimental: as §1, §2, §3, §4, §5, §6, §7, §8, §9, §10, §11, §12, §13, §14, §15, §16, §17, §18, §19, §20, §21, §22, §23, §24, §25

Karpas299 cells = assay: Suppression of Karpas299 cell proliferation (CellTiter-Glo); format: cell-based; details: 3 days incubation, read-out: Inhibition activity on Karpas299 cells IC50
Experimental: as §27, with “culture” for “medium”, “living-cell testing” for “cell viability assay”, “tested with” for “assayed by”
Cell media: RPMI-1640 medium, fetal calf serum (FCS), antibiotics (Penicillin-Streptomycin)
Assay reagent: Cell Viability Assay Kit CellTiter-Glo
as §26, §28
Karpas 299 cells were plated into a black 384-well plate, with 2500 cells in 45 μl cell suspension per well. The plate was placed in a carbon dioxide incubator overnight.
as §29
Each compound to be tested was dissolved in DMSO at 10 mM as the stock solution, which was left in a nitrogen-gas tank for storage.
After dilution of 10 μL stock solution (10 mM) into 2.5 mM as a starting working solution, 10 concentrations of the working solutions from 5 μM to 0.25 nM were obtained in duplicate by further dilution in 3-fold series with ECHO.
Step 3.3 Mixing the compound with the test cells
To each well of a new 96-well plate were added 49 μl medium and 1 μl of the compounds to be tested at individual working concentrations (10 concentrations in total). After oscillation,
5 μl of mixture in each well of the 96-well plate was transferred into corresponding wells in the 384-well plate in the step 3.1. The 384-well plate was incubated in the carbon dioxide incubator for 3 days.
To each well of the 384-well plate was added […] reagent Promega CellTiter-Glo. and incubated at room temperature for 10 minutes to stabilize the luminescence signal. The results were read with the PerkinElmer Envision Multi-mode Plate Reader.

Chain of ALK L1196M (Q9UM73 19-1620 L1196M): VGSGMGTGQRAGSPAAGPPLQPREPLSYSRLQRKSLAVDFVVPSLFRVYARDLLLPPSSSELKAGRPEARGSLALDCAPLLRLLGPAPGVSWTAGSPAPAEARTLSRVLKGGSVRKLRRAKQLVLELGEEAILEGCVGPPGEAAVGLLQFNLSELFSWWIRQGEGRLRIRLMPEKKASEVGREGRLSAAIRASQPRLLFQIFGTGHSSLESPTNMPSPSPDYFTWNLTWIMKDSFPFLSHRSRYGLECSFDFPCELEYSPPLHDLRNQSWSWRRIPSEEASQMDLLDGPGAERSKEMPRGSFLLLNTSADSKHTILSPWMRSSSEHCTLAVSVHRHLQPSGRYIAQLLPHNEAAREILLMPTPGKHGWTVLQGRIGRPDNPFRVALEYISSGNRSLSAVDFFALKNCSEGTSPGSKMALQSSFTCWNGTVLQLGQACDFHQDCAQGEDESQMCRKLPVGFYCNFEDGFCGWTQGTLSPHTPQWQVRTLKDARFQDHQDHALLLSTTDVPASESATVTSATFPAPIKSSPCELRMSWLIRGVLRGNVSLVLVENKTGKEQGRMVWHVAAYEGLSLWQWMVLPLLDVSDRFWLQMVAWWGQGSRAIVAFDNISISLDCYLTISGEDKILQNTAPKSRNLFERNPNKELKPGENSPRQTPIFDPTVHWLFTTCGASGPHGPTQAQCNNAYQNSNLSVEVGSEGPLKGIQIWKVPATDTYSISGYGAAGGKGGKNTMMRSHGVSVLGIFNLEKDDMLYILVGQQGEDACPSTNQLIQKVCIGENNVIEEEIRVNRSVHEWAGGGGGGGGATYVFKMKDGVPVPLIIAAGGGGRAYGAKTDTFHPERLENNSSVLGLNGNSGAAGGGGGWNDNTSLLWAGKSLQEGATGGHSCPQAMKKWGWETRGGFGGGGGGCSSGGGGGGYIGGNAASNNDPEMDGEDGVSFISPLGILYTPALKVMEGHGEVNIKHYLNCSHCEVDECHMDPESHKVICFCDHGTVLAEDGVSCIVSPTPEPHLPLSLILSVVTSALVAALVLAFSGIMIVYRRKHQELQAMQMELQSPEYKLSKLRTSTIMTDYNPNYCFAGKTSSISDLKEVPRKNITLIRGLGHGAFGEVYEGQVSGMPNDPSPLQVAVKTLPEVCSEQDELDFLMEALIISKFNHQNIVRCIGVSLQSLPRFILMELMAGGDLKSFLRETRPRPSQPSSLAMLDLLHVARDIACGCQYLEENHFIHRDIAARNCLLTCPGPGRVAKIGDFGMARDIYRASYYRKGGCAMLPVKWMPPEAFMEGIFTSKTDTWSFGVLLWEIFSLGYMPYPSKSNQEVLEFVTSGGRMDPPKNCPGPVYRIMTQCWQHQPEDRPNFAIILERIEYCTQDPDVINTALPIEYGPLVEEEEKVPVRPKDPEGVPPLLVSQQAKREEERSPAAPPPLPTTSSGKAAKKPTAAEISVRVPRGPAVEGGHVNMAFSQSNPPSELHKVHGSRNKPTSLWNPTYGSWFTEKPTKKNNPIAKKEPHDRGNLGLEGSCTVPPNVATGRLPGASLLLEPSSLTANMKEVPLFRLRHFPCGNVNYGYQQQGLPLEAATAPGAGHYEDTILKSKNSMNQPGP
Chain of ALK (Q9UM73 19-1620): as the sequence (Q9UM73 19-1620 L1196M) above, with M1178L counted along it

Structure (SMILES)	IC50 (ALK L1196M) [µM]	IC50 (Ba/F3 EML4-ALK cells; Ba/F3 EML4-ALK, 72 h) [µM]	IC50 (ALK) [µM]	IC50 (Karpas299 cells; Homo sapiens, KARPAS-299, 72 h) [µM]	IC50 (Ba/F3 EML4-ALK cells) [µM]	IC50 (Karpas299 cells) [µM]
COc1cc(N2CCC(N(C)C)CC2)c(C)cc1Nc1ncc(OC(F)F)c(Nc2ccccc2S(=O)(=O)C(C)C)n1 [Compound I-112, 5-(difluoromethoxy)-N^2-(4-(4-(dimethylamino)piperidin-1-yl)-2-methoxy-5-methylphenyl)-N^4-(2-(isopropylsulfonyl)phenyl) pyrimidine-2,4-diamine]	< 0.001	< 0.02	< 0.001	< 0.05		
COc1cc(N2CCN(C)CC2)ccc1Nc1ncc(Cl)c(Nc2cccnc2S(=O)(=O)C(C)C)n1 [Compound I-5]	0.001 to 0.01	< 0.02	0.001 to 0.01	< 0.05		
COc1cc(N2CCC(N(C)C)CC2)c(C)cc1Nc1ncc(Cl)c(Nc2cccnc2S(=O)(=O)C(C)C)n1 [Compound I-98, 5-chloro-N^2-(4-(4-(dimethylamino)piperidin-1-yl)-2-methoxy-5-methylphenyl)-N^4-(2-(isopropylsulfonyl)pyridin-3-yl) pyrimidine-2,4-diamine]	< 0.001	0.02 to 0.1	< 0.001	< 0.05		
COc1cc(CN2CCC(N(C)C)CC2)ccc1Nc1ncc(Cl)c(Nc2ccccc2S(=O)(=O)C(C)C)n1 [Compound I-110]	0.001 to 0.01		0.001 to 0.01		< 0.02	< 0.05
COc1cc(N2CCN(C(C)C)CC2)ccc1Nc1ncc(Cl)c(Nc2cccnc2S(=O)(=O)C(C)C)n1 [Compound I-23]	0.001 to 0.01	< 0.02	0.001 to 0.01	< 0.05		
COc1cc(C2=CCN(C(C)C)CC2)ccc1Nc1ncc(Cl)c(Nc2cccnc2S(=O)(=O)C(C)C)n1 [Compound I-85, 5-chloro-N^2-(4-(1-isopropyl-1,2,3,6-tetrahydropyridin-4-yl)-2-methoxyphenyl)-N^4-(2-(isopropylsulfonyl)pyridin-3-yl) pyrimidine-2,4-diamine]	0.001 to 0.01	0.02 to 0.1	0.001 to 0.01	< 0.05		
CC(C)Oc1cc(N2CCC(N(C)C)CC2)ccc1Nc1ncc(OC(F)F)c(Nc2ccccc2S(=O)(=O)C(C)C)n1 [Compound I-113, 5-(difluoromethoxy)-N^2-(4-(4-(dimethylamino)piperidin-1-yl)-2-isopropoxyphenyl)-N^4-(2-(isopropylsulfonyl)phenyl) pyrimidine-2,4-diamine]	< 0.001	< 0.02	< 0.001	< 0.05		
COc1cc(N2CCC(N3CC(C)OC(C)C3)CC2)ccc1Nc1ncc(Cl)c(Nc2cccnc2S(=O)(=O)C(C)C)n1 (stereo not drawn) [Compound I-12]	0.001 to 0.01	< 0.02	0.001 to 0.01	0.05 to 0.1		
COc1cc(N2CCC(N3CCN(C)CC3)CC2)ccc1Nc1ncc(Cl)c(Nc2ccsc2S(=O)(=O)C(C)C)n1 [Compound I-11]	0.001 to 0.01	< 0.02	0.001 to 0.01	< 0.05		
CC(C)S(=O)(=O)c1ncccc1Nc1nc(Nc2ccc(N3CCC(N(C)C)CC3)cc2OC(F)F)ncc1Cl [Compound I-100, 5-chloro-N^2-(2-(difluoromethoxy)-4-(4-(dimethylamino)piperidin-1-yl)phenyl)-N^4-(2-(isopropylsulfonyl)pyridin-3-yl) pyrimidine-2,4-diamine]	0.001 to 0.01	0.02 to 0.1	0.001 to 0.01	< 0.05		
Cc1cc(Nc2ncc(Cl)c(Nc3ccccc3S(=O)(=O)C(C)C)n2)c(OC(F)F)cc1N1CCC(N(C)C)CC1 [Compound I-102, 5-chloro-N^2-(2-(difluoromethoxy)-4-(4-(dimethylamino)piperidin-1-yl)-5-methylphenyl)-N^4-(2-(isopropylsulfonyl)phenyl) pyrimidine-2,4-diamine]	< 0.001	< 0.02	0.001 to 0.01	0.05 to 0.1		
COc1cc(C2=CCN(C(C)C)CC2)ccc1Nc1ncc(Cl)c(Nc2ccsc2S(=O)(=O)C(C)C)n1 [Compound I-86, 5-chloro-N^2-(4-(1-isopropyl-1,2,3,6-tetrahydropyridin-4-yl)-2-methoxyphenyl)-N^4-(2-(isopropylsulfonyl)thiophen-3-yl) pyrimidine-2,4-diamine]	< 0.001	< 0.02	< 0.001	< 0.05		
COc1cc(N2CCC(N(C)C)CC2)ccc1Nc1ncc(Cl)c(Nc2cccnc2S(=O)(=O)C(C)C)n1 [Compound I-6]	0.001 to 0.01	< 0.02	0.001 to 0.01	< 0.05		
CCOc1cc(N2CCC(N(C)C)CC2)ccc1Nc1ncc(Cl)c(Nc2cccnc2S(=O)(=O)C(C)C)n1 [Compound I-92]	0.001 to 0.01	< 0.02	0.001 to 0.01	0.05 to 0.1		
COc1cc(N2CCC(O)CC2)ccc1Nc1ncc(Cl)c(Nc2cccnc2S(=O)(=O)C(C)C)n1 [Compound I-9]	0.001 to 0.01	0.02 to 0.1	0.001 to 0.01	< 0.05		
